The text below walks through data of paper PMC11768359, “2-Aminothiophene Derivatives—New Drug Candidates Against Leishmaniasis: Drug Design, Synthesis, Pharmacomodulation, and Antileishmanial Activity” (Pharmaceuticals, 2025).

“And” between values parts separate entries of the source, which are not always exact repeats. Identical values can stand only once.

One data set concerns promastigotes of L. amazonensis. Briefly: Growth inhibition of promastigote forms of L. amazonensis (MTT). The class given is cell-based, Leishmania amazonensis. The conditions noted are these: Leishmania amazonensis, 72 h, 26 °C. As for the experimental part: (§1) The in vitro tests utilized Leishmania amazonensis parasites (IFLA/BR/67/PH8). These leishmania cell lines were obtained from Oswaldo Cruz Foundation (FIOCRUZ)/Brazil. The promastigote forms were cultivated in Schneider’s insect medium at 26 °C in a biological oxygen demand (BOD) incubator. Schneider’s insect medium was supplemented with 20% fetal bovine serum (FBS) and 1% penicillin (100 U/mL) and streptomycin (µg/mL) (complete Schneider). Next, we differentiated them from promastigote forms by changing the conditions to Schneider’s insect medium supplemented with 5% FBS, pH 4.6, and a temperature of 32 °C to obtain axenic amastigote forms of L. amazonensis. Meanwhile, RAW 264.7 macrophages were cultured in […] cell culture flasks using DMEM medium supplemented with 10% FBS, 1% penicillin 100 U/mL, and 100 μg/mL streptomycin (complete DMEM) and incubated at 37 °C and 5% CO2.
(§2) Parasite growth inhibition was evaluated using the methodology described by Rodrigues et al. (2015). Cultures of logarithmically growing promastigote and axenic amastigote forms (1 × 10^6 parasites/mL) were incubated in 96-well plates containing 100 µL of supplemented Schneider’s medium in triplicate. Serial concentrations of 2-amino-thiophene and 2-amino-selenophene derivatives (10.00–0.156 μM) and the reference drugs meglumine antimoniate (500–40,000 μg/mL), amphoterecinB (0.1–2 μM), and pentamidine (3.12–100 µM) were added. BNP was used as a negative control. The cultures were incubated in a biological oxygen demand oven (model Eletrolab EL202, São Paulo, Brazil) at 26 °C for promastigotes and 32 °C for axenic amastigotes for 72 h. Then, 10 μL of MTT (5 mg/mL) was added to each well to colorimetrically evaluate growth inhibition. The plate was subsequently incubated for a further 4 h, followed by adding 50 μL of 10% sodium dodecyl sulfate solution for […] before the optical density of the culture was read on a microplate spectrophotometer reader. The reading was taken at the test and reference wavelengths of 540 and 620 nm using a microplate spectrophotometer. The negative control consisted of 0.2% […] with BNP, considered to be 100% viable.
Take `CCOC(=O)c1c(N)sc2c1CCCCC2` [Compound 11]: the IC50 was > 10 µM.

Regarding `CC1CCc2c(sc(N)c2C#N)C1` (centres unmarked) [Compound 13], the IC50 was > 10 µM.

For `CCC1CCc2c(sc(N)c2C#N)C1` (centres unmarked) [Compound 14], the IC50 was > 10 µM.

Turning to `CC(C)(C)OC(=O)N1CCc2c(sc(N)c2C#N)C1` [Compound 17, 2-Amino-6-N-Boc-Piperidine[b]Thiophene-3-Carbonitrile], the IC50 worked out at 8.61 µM.

The compound `CCOC(=O)c1c(N)sc2c1CCN(C(=O)OC(C)(C)C)C2` [Compound 21] returned an IC50 of 3.1 µM.

Consider `N#Cc1c(N)sc2c1CCNC2` [Compound 23], for which the 50% inhibitory concentration (IC50) is > 10 µM.

Consider `Cc1cc(C#N)c(/N=C/c2c[nH]c3ccc(Br)cc23)s1` [Compound 24], for which the IC50 is > 10 µM.

Take `CCC1CCc2c(sc(/N=C/c3c[nH]c4ccc(Br)cc34)c2C#N)C1` (centres unmarked) [Compound 27]: the IC50 is > 10 µM.

Consider `CC(C)(C)C1CCc2c(sc(/N=C/c3c[nH]c4ccc(Br)cc34)c2C#N)C1` (centres unmarked) [Compound 29], for which the IC50 is > 10 µM.

`CC(C)(C)OC(=O)N1CCc2c(sc(/N=C/c3c[nH]c4ccc(Br)cc34)c2C#N)C1` [Compound 31]: the IC50 is > 10 µM.

The compound `N#Cc1ccc2[nH]cc(/C=N/c3[se]c4c(c3C#N)CCCC4)c2c1` [Compound 33] gave a concentration for half-maximal inhibition (IC50) of 9.32 µM.

With `N#Cc1c(/N=C/c2c[nH]c3cccc(Br)c23)[se]c2c1CCCC2` [Compound 37], 4.5 µM corresponded to half-maximal inhibition (IC50).

`N=C(N)c1ccc(OCCCCCOc2ccc(C(=N)N)cc2)cc1` [Pentamidine, reference compound]: the IC50 was 42.3 µM.

For a further data set, the system named is axenic amastigotes of L. amazonensis. Briefly: Growth inhibition of axenic amastigote forms of L. amazonensis (MTT). The data set is classed as cell-based, Leishmania amazonensis. The conditions noted are these: Leishmania amazonensis, 72 h, 32 °C. As to the method:
as §1, §2
For the compound `CC1CCc2c(sc(N)c2C#N)C1` (centres unmarked) [Compound 13], the IC50 is > 10 µM.

Regarding `CCC1CCc2c(sc(N)c2C#N)C1` (centres unmarked) [Compound 14], the IC50 is > 10 µM.

On to `CC(C)(C)OC(=O)N1CCc2c(sc(N)c2C#N)C1` [Compound 17, 2-Amino-6-N-Boc-Piperidine[b]Thiophene-3-Carbonitrile], for which the concentration for half-maximal inhibition (IC50) is > 10 µM.

On to `CCOC(=O)c1c(N)sc2c1CCN(C(=O)OC(C)(C)C)C2` [Compound 21], for which inhibition was half-maximal at 2.9 µM (IC50).

On to `N#Cc1c(N)sc2c1CCNC2` [Compound 23], for which the concentration for half-maximal inhibition (IC50) is > 10 µM.

As to `Cc1cc(C#N)c(/N=C/c2c[nH]c3ccc(Br)cc23)s1` [Compound 24], the IC50 is > 10 µM.

`CCC1CCc2c(sc(/N=C/c3c[nH]c4ccc(Br)cc34)c2C#N)C1` (centres unmarked) [Compound 27]: the IC50 was > 10 µM.

As to `CC(C)(C)C1CCc2c(sc(/N=C/c3c[nH]c4ccc(Br)cc34)c2C#N)C1` (centres unmarked) [Compound 29], the IC50 is > 10 µM.

In the case of `CC(C)(C)OC(=O)N1CCc2c(sc(/N=C/c3c[nH]c4ccc(Br)cc34)c2C#N)C1` [Compound 31], the IC50 is > 10 µM.

System in another data set: not listed separately
Briefly: Cytotoxicity in macrophages (MTT). The class given is cell-based. The conditions noted are these: mouse, RAW 264.7 macrophages. As for the experimental part: as §1
First, 100 μL DMEM medium complete with 1 × 10^6 macrophages (RAW 264.7) was added to each well of a 96-well plate. RAW 264.7 macrophages were obtain from ATCC: code TIB-71^TM. The plate was placed in an incubator (37 °C, 5% CO2) (Sanyo, model COM-15A, Sanyo Electric Co., Osaka, Japan) for 4 h to promote cell adhesion. After this period, two washes were conducted with previously heated DMEM medium (37 °C) to remove non-adhered cells. 2-amino-thiophene and 2-amino-selenophene derivatives were added to wells at serial concentrations of 400 to 25 µM and then incubated for 48 h. Next, 10 μL of MTT at a […] of 5 mg/mL were added to each well and incubated for 4 h. The plate was then shaken for 30 min and read at the test and reference wavelengths of 550 and 620 nm, respectively, in a plate reader. DMEM medium supplemented with 0.5% DMSO was used as a negative control and considered as 100% macrophage viability. The selectivity index for each treatment was calculated as the ratio between the concentration of cytotoxicity of RAW 264.7 macrophages (CC50) and the 50% inhibitory concentration (IC50) or effective concentration (EC50), as measured for the different evolutionary forms of L. amazonensis.
`CCOC(=O)c1c(N)sc2c1CCN(C(=O)OC(C)(C)C)C2` [Compound 21] yielded a CC50 at 48 h of 221 µM.

With `N#Cc1ccc2[nH]cc(/C=N/c3[se]c4c(c3C#N)CCCC4)c2c1` [Compound 33], the half-maximal cytotoxic concentration (CC50) at 48 h was 203 µM.

Compound `N#Cc1c(/N=C/c2c[nH]c3cccc(Br)c23)[se]c2c1CCCC2` [Compound 37] yielded a CC50 at 48 h of 242 µM.

As for `N=C(N)c1ccc(OCCCCCOc2ccc(C(=N)N)cc2)cc1` [Pentamidine, reference compound], the CC50 at 48 h amounted to 294 µM.

A further data set concerns promastigotes of L. amazonensis.
Assay: not given
The conditions noted are these: L. amazonensis promastigotes, sensitive strain; read-out: IC50 anti-promastigote; cited from earlier work.
As for `Cc1ccc2[nH]cc(/C=N/c3sc4c(c3C#N)CCCC4)c2c1` [TN6-1, reference compound], the IC50 is 7.2 µM.

Turning to `N#Cc1c(/N=C/c2c[nH]c3ccccc23)sc2c1CCCCC2` [TN7, reference compound], the IC50 was 10 µM.

Staying with this data set, now noted: L. amazonensis promastigotes; previously published; cited from earlier work.
Consider `N#Cc1c(/N=C/c2c[nH]c3ccc(Br)cc23)sc2c1CCC2` [Compound 25], for which the “IC50 Promastigotes” value was “inactive against the two evolutionary forms”.

Turning to `N#Cc1c(/N=C/c2c[nH]c3ccc(Br)cc23)sc2c1CCCCCCCCCC2` [Compound 26], the “IC50 Promastigotes” value is “inactive against the two evolutionary forms”.

The same data set, now with this note: L. amazonensis promastigotes; previously published; read-out: IC50 Promastigotes; cited from earlier work.
Take `N#Cc1c(N)sc2c1CCCC2` [Compound 5]: the IC50 was > 10 µM.

With `N#Cc1c(/N=C/c2c[nH]c3ccc(Br)cc23)sc2c1CCC2` [Compound 25], the IC50 was > 10 µM.

Turning to `N#Cc1c(/N=C/c2c[nH]c3ccc(Br)cc23)sc2c1CCCCCCCCCC2` [Compound 26], the IC50 was > 10 µM.

Turning to `N#Cc1c(/N=C/c2c[nH]c3ccc(Br)cc23)sc2c1CCNC2` [Compound 30], the IC50 is > 10 µM.

As for `N#Cc1c(/N=C/c2c[nH]c3ccccc23)sc2c1CCCCC2` [SB-44, reference compound], the IC50 was 7.3 µM and 7.37 µM.

Staying with this data set, now noted: L. amazonensis; read-out: IC50 against promastigotes; cited from earlier work.
Consider `N#Cc1c(/N=C/c2c[nH]c3cccc(Br)c23)sc2c1CCCCCC2` [Compound 42, reference compound], for which the half-maximal inhibitory concentration (IC50) was 2.9 µM and 2.97 µM.

For a further data set, the system named is axenic amastigotes of L. amazonensis.
Assay: not given
As to conditions: L. amazonensis amastigotes; previously published; read-out: IC50 Amastigotes; cited from earlier work.
Regarding `N#Cc1c(/N=C/c2c[nH]c3ccccc23)sc2c1CCCCC2` [SB-44, reference compound], the IC50 was 15.8 µM.

The same data set, now with this note: L. amazonensis amastigotes; read-out: EC50 against amastigotes; cited from earlier work.
As to `N#Cc1c(/N=C/c2c[nH]c3ccccc23)sc2c1CCCCC2` [SB-44, reference compound], the EC50 was 15.8 µM.

The same data set, now with this note: L. amazonensis axenic amastigotes; previously published; cited from earlier work.
Consider `N#Cc1c(/N=C/c2c[nH]c3ccc(Br)cc23)sc2c1CCC2` [Compound 25], for which the “IC50 Amastigotes” value is “inactive against the two evolutionary forms”.

For the compound `N#Cc1c(/N=C/c2c[nH]c3ccc(Br)cc23)sc2c1CCCCCCCCCC2` [Compound 26], the “IC50 Amastigotes” value was “inactive against the two evolutionary forms”.

The same data set, now with this note: L. amazonensis axenic amastigotes; previously published; read-out: IC50 Amastigotes; cited from earlier work.
Regarding `N#Cc1c(/N=C/c2c[nH]c3ccc(Br)cc23)sc2c1CCC2` [Compound 25], the half-maximal inhibitory concentration (IC50) was > 10 µM.

Turning to `N#Cc1c(/N=C/c2c[nH]c3ccc(Br)cc23)sc2c1CCCCCCCCCC2` [Compound 26], the IC50 is > 10 µM.

In the case of `N#Cc1c(/N=C/c2c[nH]c3ccc(Br)cc23)sc2c1CCNC2` [Compound 30], the IC50 was > 10 µM.

The data set is the same for the next values; noted with them: L. amazonensis; read-out: IC50 against axenic amastigotes; cited from earlier work.
As for `N#Cc1c(/N=C/c2c[nH]c3cccc(Br)c23)sc2c1CCCCCC2` [Compound 42, reference compound], the IC50 is 1.7 µM and 1.71 µM.

In general, IC50 refers to the concentration that gives 50% inhibition. What is called CC50 is the concentration giving 50% cytotoxicity. In general, EC50 refers to the concentration at which the effect is half-maximal.
